According to paper PMC4111878, “Three New Humulane Sesquiterpenes from Cultures of the Fungus Antrodiella albocinnamomea” (Natural Products and Bioprospecting, 2014):

Columns and labels:
MEG2 = target: T1, MEG2 (Homo sapiens, UniProt P43378); experiment: Enzyme inhibition assay against protein-tyrosine phosphatase MEG2 (pNPP hydrolysis); type: biochemical; details: recombinant His-tagged enzyme, 10 ng per well, pNPP 2 mM, pH 6.0, room temperature, 15 min preincubation, triplicate; NA = no activity; read-out: inhibitory activity against protein-tyrosine phosphatase MEG2, IC50 (converted)
T1 construct: 6xHis (N); made in house; host or cells: E. coli
T1 sequence (P43378 1-593): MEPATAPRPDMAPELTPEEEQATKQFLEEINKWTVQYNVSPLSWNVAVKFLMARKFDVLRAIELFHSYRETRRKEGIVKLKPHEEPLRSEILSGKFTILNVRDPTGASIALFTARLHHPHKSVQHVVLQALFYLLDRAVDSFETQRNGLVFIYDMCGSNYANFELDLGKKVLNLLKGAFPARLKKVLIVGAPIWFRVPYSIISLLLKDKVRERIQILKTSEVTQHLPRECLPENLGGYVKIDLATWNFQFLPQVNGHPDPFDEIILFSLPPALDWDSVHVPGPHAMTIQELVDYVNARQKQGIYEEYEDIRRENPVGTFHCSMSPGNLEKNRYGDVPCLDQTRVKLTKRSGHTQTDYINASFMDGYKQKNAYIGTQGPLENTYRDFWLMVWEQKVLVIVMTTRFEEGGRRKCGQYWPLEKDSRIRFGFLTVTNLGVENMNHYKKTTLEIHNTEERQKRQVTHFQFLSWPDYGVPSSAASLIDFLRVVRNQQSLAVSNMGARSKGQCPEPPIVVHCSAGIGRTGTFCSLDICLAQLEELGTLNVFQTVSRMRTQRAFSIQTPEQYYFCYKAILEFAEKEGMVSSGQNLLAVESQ
Method: (§1) The enzymatic assay was carried out at room temperature in 96-well plates. After the assay buffer which contained 100 mM Hepes (pH 6.0), 5 mM DTT 0.015 % Brij-35 and PTPase (20 ng PTP1B, 10 ng MEG2per well) was incubated with tested compounds for 15 min, the reaction was initiated by addition of the substrate p-nitrophenol phosphate (pNPP, Sigma, P4744, St. Louis, USA) at a final concentration of 2 mM. The activity of PTPase-catalyzed hydrolysis of pNPP was determined by measuring the amount of p-nitrophenol and the absorbance at 405 nm was recorded as the amount of p-nitrophenol. The IC50 value was determined by the non-linear curve fitting of the percentage inhibition versus inhibitor concentration plot. […] Louis, USA) was used for the positive control. All the assays were carried out in triplicate and the average results were presented.

PTP1Bc = target: T2, PTP1Bc (Homo sapiens, UniProt P18031); experiment: Enzyme inhibition assay against protein-tyrosine phosphatase PTP1Bc (pNPP hydrolysis); type: biochemical; details: recombinant His-tagged enzyme, 20 ng per well, pNPP 2 mM, pH 6.0, room temperature, 15 min preincubation, triplicate; NA = no activity; read-out: inhibitory activity against protein-tyrosine phosphatase PTP1Bc, IC50 (converted)
T2 sequence (P18031 1-298 limits assumed): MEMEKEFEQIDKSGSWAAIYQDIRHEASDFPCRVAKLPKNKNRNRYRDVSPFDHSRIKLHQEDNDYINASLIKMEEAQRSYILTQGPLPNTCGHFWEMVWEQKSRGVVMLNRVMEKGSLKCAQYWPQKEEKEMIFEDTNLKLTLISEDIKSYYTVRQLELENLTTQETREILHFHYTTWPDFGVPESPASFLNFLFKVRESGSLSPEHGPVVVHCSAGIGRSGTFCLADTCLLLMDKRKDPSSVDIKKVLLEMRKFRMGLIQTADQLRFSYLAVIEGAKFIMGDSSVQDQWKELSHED
Method: as §1

IC50 (MEG2) | IC50 (PTP1Bc) | Compound
31.5 µM | 39.3 µM | CC1=CC(O)C(C)(O)C(C)CCC2(C)OC2CC1 (stereo not shown) [Compound 1, 6,7-epoxy-10E-humulen-1,2-diol]
 | 59.8 µM | CC1(C)C=CC(O)C2(C)OC2CCC2(C)OC2C1 (stereo not drawn) [Compound 3, 6,7:10,11-diepoxy-3E-humulen-5β-ol]
1.75 µM |  | C[C@H]1[C@H](C)CC[C@]2(C(=O)O)CC[C@]3(C)C(=CC[C@@H]4[C@@]5(C)CC[C@H](O)C(C)(C)[C@@H]5CC[C@]43C)[C@H]12 [Ursolic acid, reference compound]
